Data: patent US20230049917A1, “Pharmaceutical Composition of CASR Modulators and Methods and Uses Thereof” (Lupin Limited, priority 2019, published 2023)

How the values were obtained:
[1] = Pharmacokinetic analysis after oral administration of the formulation to rats; type: in vivo; settings: male, Sprague Dawley, rat, in vivo, po, 5 mg/kg
Method: Male Sprague Dawley Rats (weight 225±25 gm; aged 8 to 10 weeks) were administered orally with the formulation. Each of the tested compounds was dosed at 5 mg/kg at a dose volume of 1 mL/kg. Blood samples were collected at time points 0.25, 0.5, 1, 2, 4, 6, 8 and 24 hours and analyzed the plasma concentrations of administered compound and calculated PK parameters. The plasma concentrations of the tested compounds were measured by liquid chromatography with tandem mass spectrometry (LCMS-MS) using […] extraction method. The plasma concentration-time data was subjected to Non-Compartmental Analysis using Phoenix WinNonlin® (Version 5.3) software to assess the pharmacokinetic parameters. Peak plasma concentrations (Cmax) and time for the peak plasma concentrations (Tmax) were the observed values. The area under the concentration time curve (AUC) was calculated by linear trapezoidal rule.

[2] = Phase 2 study: safety assessments (adverse events); type: in vivo, human; settings: for patients who discontinued the study due to adverse drug reactions: Main Study
Method: For safety assessments, safety was assessed through the summary of adverse events (AE), physical examinations and electrocardiogram (ECG) measurements, vital signs (e.g., blood pressure, pulse rate, respiratory rate and body temperature), body weight and laboratory data (e.g., haemtaology, biochemistry and urinalysis). All AEs (both serious and non-serious) were derived from spontaneous, unsolicited reports of patients, by observation and by routine open questions. The AE reporting extended from date of informed consent until completion of the final visit. Any ongoing AE at EOS visit was followed until the outcome was evident and resolved, clinically stabilized or a plausible explanation was found. Pre-existing diseases including deranged laboratory values (before participating in the study) were not considered AEs, unless the disease worsened during the study period. Signs and symptoms clearly associated with the disease under study (including symptoms of disease progression) were reported as AEs if they were newly emergent, or were determined as severe or worsening, or if deterioration of disease-related signs and symptoms to be caused directly by the study drug. Physical examination, vital signs (measured in a sitting position after resting for at least 3 minutes), ECG (recorded by qualified personnel after the patient had been resting in the supine position for at least 3 minutes) and clinical laboratory examinations were done as part of safety assessments. Abnormal laboratory values/ECGs/vital signs/physical examination were reported as AEs only if the abnormality was clinically relevant or significant or believed that the abnormality must be reported as an AE. Any dose (and associated symptoms) given to the patient that exceeded the dose prescribed to the patient, at a minimum, was recorded as a non-serious AE in the patient file and CRF/electronic CRF. Any case of overdose leading to an AE or SAE had to be reported to medical monitor according to reporting requirements. In case of an accidental overdose, the patient had to be monitored by for any adverse clinical events, as deemed necessary.

cytochrome P450 2D6 = cytochrome P450 2D6 (Homo sapiens, UniProt P10635); test: Cytochrome P450 2D6 liability; type: in vitro ADME
Chain of cytochrome P450 2D6 (P10635 whole entry, species assumed): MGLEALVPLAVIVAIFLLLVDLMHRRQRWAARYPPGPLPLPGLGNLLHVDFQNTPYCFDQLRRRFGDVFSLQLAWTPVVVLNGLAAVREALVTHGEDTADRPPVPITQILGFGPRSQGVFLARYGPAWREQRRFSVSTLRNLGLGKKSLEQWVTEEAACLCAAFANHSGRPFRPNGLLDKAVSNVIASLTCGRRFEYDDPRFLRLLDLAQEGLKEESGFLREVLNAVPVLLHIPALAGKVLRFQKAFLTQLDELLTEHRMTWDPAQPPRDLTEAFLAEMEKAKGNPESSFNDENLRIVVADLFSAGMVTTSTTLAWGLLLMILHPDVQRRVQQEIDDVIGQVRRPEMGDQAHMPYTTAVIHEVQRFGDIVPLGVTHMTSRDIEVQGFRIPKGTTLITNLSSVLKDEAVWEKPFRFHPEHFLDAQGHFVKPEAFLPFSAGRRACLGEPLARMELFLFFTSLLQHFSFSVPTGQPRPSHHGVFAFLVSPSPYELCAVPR

[3] = target: human Ether-a-go-go-related gene (hERG) (Homo sapiens, UniProt Q12809); test: hERG liability
Chain of human Ether-a-go-go-related gene (hERG) (Q12809 whole entry): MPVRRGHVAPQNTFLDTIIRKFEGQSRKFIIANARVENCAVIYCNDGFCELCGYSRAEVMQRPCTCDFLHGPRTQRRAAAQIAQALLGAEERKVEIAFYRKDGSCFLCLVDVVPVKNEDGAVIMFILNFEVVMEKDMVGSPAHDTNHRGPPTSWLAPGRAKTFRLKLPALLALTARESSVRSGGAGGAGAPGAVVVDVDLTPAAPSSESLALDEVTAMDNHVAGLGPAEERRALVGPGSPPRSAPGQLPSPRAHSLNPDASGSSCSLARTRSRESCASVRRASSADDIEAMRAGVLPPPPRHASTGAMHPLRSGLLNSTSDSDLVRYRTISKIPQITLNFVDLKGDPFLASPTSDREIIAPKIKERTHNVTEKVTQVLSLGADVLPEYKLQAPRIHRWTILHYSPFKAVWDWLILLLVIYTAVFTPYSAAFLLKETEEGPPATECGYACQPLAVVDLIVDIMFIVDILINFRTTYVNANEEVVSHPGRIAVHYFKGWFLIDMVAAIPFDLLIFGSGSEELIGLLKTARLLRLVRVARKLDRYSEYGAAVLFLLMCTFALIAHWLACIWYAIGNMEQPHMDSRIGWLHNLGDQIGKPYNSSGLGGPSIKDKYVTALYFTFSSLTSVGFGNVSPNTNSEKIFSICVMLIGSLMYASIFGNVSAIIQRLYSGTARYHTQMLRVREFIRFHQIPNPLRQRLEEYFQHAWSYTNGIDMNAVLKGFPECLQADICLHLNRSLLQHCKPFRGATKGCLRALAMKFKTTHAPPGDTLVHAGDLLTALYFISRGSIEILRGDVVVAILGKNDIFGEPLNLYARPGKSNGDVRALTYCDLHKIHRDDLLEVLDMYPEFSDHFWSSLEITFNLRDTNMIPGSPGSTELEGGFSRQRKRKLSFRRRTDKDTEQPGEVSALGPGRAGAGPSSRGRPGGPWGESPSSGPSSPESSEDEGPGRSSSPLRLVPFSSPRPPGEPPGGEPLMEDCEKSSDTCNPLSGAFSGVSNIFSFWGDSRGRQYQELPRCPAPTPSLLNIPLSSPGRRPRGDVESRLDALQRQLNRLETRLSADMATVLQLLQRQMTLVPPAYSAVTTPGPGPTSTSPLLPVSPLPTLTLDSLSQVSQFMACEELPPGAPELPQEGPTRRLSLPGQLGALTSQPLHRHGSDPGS

[4] = Non-clinical studies: hypocalcaemia at efficacious doses; type: in vivo
[5] = patients not on dialysis, 5 mg BID (N = 16)
[6] = patients not on dialysis, 10 mg QD (N = 37)
[7] = patients not on dialysis, Total in Compound 3 Group (N = 71)
[8] = patients on dialysis, 10 mg QD (N = 34)
[9] = patients on dialysis, 20 mg BID (N = 19)
[10] = patients on dialysis, 25 mg QD (N = 35)
[11] = patients on dialysis, Total in Compound 3 Group (N = 88)

Cc1ccc([C@@H]2C[C@H](CN[C@H](C)c3cccc4ccccc34)Oc3ccccc32)cc1C(=O)O.Cl [Compound 3, 2-methyl-5-((2R,4S)-2-((((R)-1-(naphthalen-1-yl)ethyl)amino)methyl)chroman-4-yl)benzoic acid hydrochloride]
AUC(0-t) [1]: 15 ± 4 µM·h | Cmax [1]: 3.4 ± 1 µM | Tmax [1]: 0.5 to 2 h | patients with hypocalcaemia considered by the investigator to be related to the study drug ([2]; 1 patient each in 10 mg QD, 25 mg QD and 20 mg BID arms): 3 patients | symptomatic hypocalcemic effect ([2]; CKD patients, dose range 5 mg to 50 mg): no symptomatic hypocalcemic effect | patients who discontinued the study due to adverse drug reactions ([2]; not on dialysis group): None | patients who discontinued the study due to adverse drug reactions ([2]; on dialysis group): None | adverse events of hyperphosphatemia ([2]; Phase 2 study, all patients): no adverse events of hyperphosphatemia | patients experiencing adverse events of hypocalcaemia or hyperphosphatemia ([2]; patients not on dialysis): none | Adverse event incidence: Diarrhea [2, 5]: 0% | Adverse event incidence: Nausea [2, 5]: 0% | Adverse event incidence: Vomiting [2, 5]: 0% | Adverse event incidence: Diarrhea [2, 6]: 2.7% | Adverse event incidence: Nausea [2, 6]: 0% | Adverse event incidence: Vomiting [2, 6]: 0% | Adverse event incidence: Diarrhea [2, 7]: 2.7% | Adverse event incidence: Nausea [2, 7]: 0% | Adverse event incidence: Vomiting [2, 7]: 0% | Adverse event incidence: Diarrhea [2, 8]: 0% | Adverse event incidence: Nausea [2, 8]: 0% | Adverse event incidence: Vomiting [2, 8]: 0% | Adverse event incidence: Diarrhea [2, 9]: 0% | Adverse event incidence: Nausea [2, 9]: 5.3% | Adverse event incidence: Vomiting [2, 9]: 0% | Adverse event incidence: Diarrhea [2, 10]: 0% | Adverse event incidence: Nausea [2, 10]: 0% | Adverse event incidence: Vomiting [2, 10]: 0% | Adverse event incidence: Diarrhea [2, 11]: 0% | Adverse event incidence: Nausea [2, 11]: 5.3% | Adverse event incidence: Vomiting [2, 11]: 0% | cytochrome P450 2D6 liabilities (cytochrome P450 2D6): devoid | hERG liabilities [3]: devoid | hypocalcaemia [4]: No hypocalcaemia
